{"source": "patent US20120142771A1", "about": "“BIPHENYLACETAMIDE DERIVATIVE” (Dainippon Sumitomo Pharma Co., Ltd., priority 2008, published 2012)", "test_system": "Crl: CD (SD) male rats", "assay": "Evaluation of antidepressant effect (forced swimming, duration of immobility)", "assay_type": "in vivo", "excerpt": "Meanwhile, there are no reports about animal models which provide a good clinical prediction to evaluate the improving efficacy for bipolar disorder. However, bipolar disorder comprises “manic state” and “depressive state”, and some animals are reported to be useful as a model to evaluate the improvement of each pathological condition individually. In general, an index of manic state is excessive hyperactivity induced by administering methamphetamine and chlordiazepoxide in combination, and that of depressive state is immobility induced by forced swimming.\nTest 6: Evaluation of Antidepressant Effect\nTest 6 is a typical test to evaluate the antidepressant activity of medicaments (Porsolt et al., Nature, 266: 730-732, 1977, Porsolt et al., Eur. J. Pharmacol., 47: 379-391, 1978). Crl: CD (SD) male rats (12 rats in each group, body weight 200-250 g) were forced to swim for 15 minutes in a water pool with 200 mm diameter. In the pool, water was filled up to a depth of 205 mm from the bottom of the pool, and thus the rats could not touch the bottom of the pool with their hind limbs. Fifteen minutes after the completion of the forced swimming, test compounds were orally administered to the rats. On the next day, the test compounds were administered to the rats at the same dose as the previous day, and the rats were put in the pool for 5 minutes at the same clock time as the previous day. […] The antidepressant effect was evaluated by calculating how long the duration of immobility was shortened against the control. To the control, 0.5% methylcellulose solution was administered."}
{"smiles": "NC(=O)Cc1ccccc1-c1ccccc1F", "note": "[Example 1, 2-(2′-Fluorobiphenyl-2-yl)acetamide]", "values": [{"measurement": "The rate of the shortened duration of immobility (% control)", "setting": "10 mg/kg oral", "value": 23.4, "unit": "% control"}, {"measurement": "The rate of the shortened duration of immobility (% control)", "setting": "30 mg/kg oral", "value": 24.9, "unit": "% control"}]}
